Measurements published in patent US12392782B2, “Characterization of protein binding to per- and polyfluoroalkyl substances” (North Carolina State University, priority 2021, dated 2025).
Where two headings read alike, the source gives them in different places.

What was measured:
HSA = HSA (Homo sapiens, UniProt P02768); experiment: Differential scanning fluorimetry (DSF) thermal shift assay of HSA binding; settings: for bound by HSA: result in words
Method: (§1) Assays were also performed in 384-well plates, in which the reactions were performed using half the final volume (10 μL) and the concentration of each reagent was halved compared to those used in the 96-well plates.
(§2) Data are reported as mean values±SEM following background subtraction.
(§3) [formula] Top is the maximal response, bottom is minimal response, P is protein concentration, Kd is dissociation constant, X is ligand concentration, and Y is change in Tm. […] Comparison between protein concentrations and comparisons of calculated binding affinities between different compounds was performed using one-way analysis of variance (ANOVA) and a Tukey's post hoc test was performed to evaluate pair-wise differences. Significance between differences in values was defined as p<0.05.
(§4) Possible solvent effects were investigated for PFOA that was solubilized in each of the three solvents.

rat serum albumin (RSA) = rat serum albumin (RSA) (Rattus norvegicus, UniProt P02770); experiment: DSF thermal shift assay of rat serum albumin binding
Method: as §1, §2, §3
(§5) Binding affinities for certain PFAS compounds were also determined using PSA, BSA, and RSA.

[1] = target: bovine serum albumin (BSA) (Bos taurus, UniProt P02769); experiment: DSF thermal shift assay of bovine serum albumin binding
Method: as §1, §2, §3, §5

[2] = target: Porcine serum albumin (PSA) (Sus scrofa, UniProt P08835); experiment: DSF thermal shift assay of porcine serum albumin binding
Method: as §1, §2, §3, §5

[3] = Excerpt: as §4
[4] = decarboxylation (Liberatore et al.); cited from earlier work
[5] = PFAS, 4-parameter fit of Δ Tm, mean ± SEM
[6] = PFAS, single site ligand binding model, mean ± SEM
[7] = stock solvent DMSO (50% in HBS), mean ± SEM

HSA, sequence (P02768 25-609): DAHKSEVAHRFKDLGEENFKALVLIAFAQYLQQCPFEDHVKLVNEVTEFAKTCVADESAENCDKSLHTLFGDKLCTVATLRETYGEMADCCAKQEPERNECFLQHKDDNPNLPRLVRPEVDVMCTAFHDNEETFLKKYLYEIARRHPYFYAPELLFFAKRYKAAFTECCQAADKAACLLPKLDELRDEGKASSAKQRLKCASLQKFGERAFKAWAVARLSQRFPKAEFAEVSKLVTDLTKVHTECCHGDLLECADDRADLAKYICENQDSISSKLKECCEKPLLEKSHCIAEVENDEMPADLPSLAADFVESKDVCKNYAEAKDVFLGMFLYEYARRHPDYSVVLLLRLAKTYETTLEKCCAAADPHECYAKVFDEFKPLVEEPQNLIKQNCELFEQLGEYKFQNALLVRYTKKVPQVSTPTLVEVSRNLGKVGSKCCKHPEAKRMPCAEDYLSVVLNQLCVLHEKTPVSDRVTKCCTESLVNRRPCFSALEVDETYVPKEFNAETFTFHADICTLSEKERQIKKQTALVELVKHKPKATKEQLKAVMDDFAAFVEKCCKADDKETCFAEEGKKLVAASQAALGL
rat serum albumin (RSA), sequence (P02770 25-608): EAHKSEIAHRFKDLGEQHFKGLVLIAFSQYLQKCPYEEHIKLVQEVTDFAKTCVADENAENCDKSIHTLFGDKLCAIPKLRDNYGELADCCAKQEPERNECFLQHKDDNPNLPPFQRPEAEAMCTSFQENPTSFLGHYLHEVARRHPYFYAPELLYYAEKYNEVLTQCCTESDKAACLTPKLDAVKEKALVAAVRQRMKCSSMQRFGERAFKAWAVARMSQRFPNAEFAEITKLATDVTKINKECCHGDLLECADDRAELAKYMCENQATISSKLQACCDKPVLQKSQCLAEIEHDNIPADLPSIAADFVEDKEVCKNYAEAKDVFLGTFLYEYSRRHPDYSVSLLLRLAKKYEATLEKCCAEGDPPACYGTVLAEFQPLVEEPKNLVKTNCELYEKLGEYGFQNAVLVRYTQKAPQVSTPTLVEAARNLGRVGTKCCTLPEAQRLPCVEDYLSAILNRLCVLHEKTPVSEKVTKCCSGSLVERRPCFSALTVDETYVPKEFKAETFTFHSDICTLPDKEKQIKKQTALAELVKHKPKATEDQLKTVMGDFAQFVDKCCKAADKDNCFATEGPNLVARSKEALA
bovine serum albumin (BSA), sequence (P02769 25-607): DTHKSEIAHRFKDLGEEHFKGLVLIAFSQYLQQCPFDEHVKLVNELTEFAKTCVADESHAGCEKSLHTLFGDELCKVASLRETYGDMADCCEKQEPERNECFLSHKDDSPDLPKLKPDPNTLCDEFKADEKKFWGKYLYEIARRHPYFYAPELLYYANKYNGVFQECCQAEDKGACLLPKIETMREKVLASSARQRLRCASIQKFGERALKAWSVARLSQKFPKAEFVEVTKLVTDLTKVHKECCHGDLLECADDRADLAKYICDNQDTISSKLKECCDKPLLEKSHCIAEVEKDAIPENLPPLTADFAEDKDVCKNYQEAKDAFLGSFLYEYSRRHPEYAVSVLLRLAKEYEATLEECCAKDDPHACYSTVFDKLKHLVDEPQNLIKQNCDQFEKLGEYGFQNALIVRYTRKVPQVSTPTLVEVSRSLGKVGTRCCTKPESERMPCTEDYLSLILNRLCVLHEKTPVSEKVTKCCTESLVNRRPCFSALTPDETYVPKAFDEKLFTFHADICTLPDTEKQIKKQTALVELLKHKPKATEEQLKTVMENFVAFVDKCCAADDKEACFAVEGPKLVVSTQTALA
Porcine serum albumin (PSA), sequence (P08835 25-607): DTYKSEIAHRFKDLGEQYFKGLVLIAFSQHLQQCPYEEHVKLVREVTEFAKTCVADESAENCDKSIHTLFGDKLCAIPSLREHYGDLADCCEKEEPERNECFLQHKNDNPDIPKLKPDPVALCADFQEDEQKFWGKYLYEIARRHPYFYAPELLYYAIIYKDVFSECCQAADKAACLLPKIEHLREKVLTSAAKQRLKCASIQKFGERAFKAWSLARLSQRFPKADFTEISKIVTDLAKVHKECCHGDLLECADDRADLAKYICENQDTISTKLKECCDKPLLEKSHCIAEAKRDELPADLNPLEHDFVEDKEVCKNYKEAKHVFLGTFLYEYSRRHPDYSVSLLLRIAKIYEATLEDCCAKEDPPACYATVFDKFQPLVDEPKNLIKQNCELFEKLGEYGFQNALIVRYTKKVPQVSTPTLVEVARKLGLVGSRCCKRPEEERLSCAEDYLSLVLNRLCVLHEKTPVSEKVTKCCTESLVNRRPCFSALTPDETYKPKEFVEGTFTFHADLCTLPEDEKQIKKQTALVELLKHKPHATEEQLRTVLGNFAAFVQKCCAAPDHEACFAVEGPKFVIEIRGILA

Row | Compound | Δ Tm (HSA; PFAS, 0.125 mM HSA, ± SEM) [°C] | EC50 (HSA; [5]) [µM] | Kd (HSA; [6]) [µM] | EC50 (HSA) [µM] | Kd (HSA) [µM] | also measured
1 | O=C(O)C(F)(F)OC(F)(F)C(F)(F)OC(F)(F)C(F)(F)OC(F)(F)F [PFO3DoDA, Perfluoro-3,6,9-trioxadecanoic acid] | 20.6 ± 0.58 | 1670 ± 190 | 1530 ± 140 |  |  | 
2 | O=S(=O)(O)CCC(F)(F)C(F)(F)C(F)(F)C(F)(F)F [4:2 FTSA, 2H,2H,3H,3H-Perfluorohexansulfonic acid] | 3.49 ± 0.084 | 1450 ± 140 | 1070 ± 190 |  |  | 
3 | O=C(O)C(F)(F)C(F)(F)C(F)(F)C(F)(F)C(F)(F)C(F)(F)C(F)(F)C(F)(F)C(F)(F)C(F)(F)C(F)(F)F [PFDoA, perfluorododecanoic acid] | 7.74 ± 0.14 | 2510 ± 140 | 1890 ± 260 |  |  | 
4 | FC(OC(F)(F)C(F)(F)C(F)(F)F)C(F)(F)F (stereo not drawn) [E1, 1,1,1,2,2,3,3-Heptafluoro-3-(1,2,2,2-tetrafluoroethoxy)propane] | 7.32 ± 0.042 | 2340 ± 230 | 1640 ± 140 |  |  | 
5 | CCCCCCCCCCCCCCCC(=O)O [Hexadecanoic Acid, hexadecanoic acid, reference compound] |  |  |  | 84 ± 21 | 30 ± 8 | 
6 | O=C(O)C(F)(F)C(F)(F)C(F)(F)F [PFBA, Perfluorobutanoic acid] |  |  |  | 2610 ± 190 | 2570 ± 320 | Kd (rat serum albumin (RSA)): 1390 ± 110 µM; Kd [1]: 980 ± 100 µM; Kd [2]: 1500 ± 110 µM
7 | O=C(O)C(F)(F)C(F)(F)C(F)(F)C(F)(F)C(F)(F)C(F)(F)C(F)(F)C(F)(F)C(F)(F)F [PFDA, perfluorodecanoic acid] |  |  |  | 1110 ± 70 | 1190 ± 240 | 
8 | O=S(=O)(O)C(F)(F)C(F)(F)C(F)(F)C(F)(F)C(F)(F)C(F)(F)F [PFHxS, perfluorohexanesulfonic acid] | 11.0 ± 0.17 | 980 ± 28 | 710 ± 190 |  |  | 
9 | OCCC(F)(F)C(F)(F)C(F)(F)C(F)(F)C(F)(F)C(F)(F)F [6:2 FTOH, 1H,1H,2H,2H-Perfluorooctanol] | 0 ± 0 |  |  |  |  | bound by HSA (HSA): not bound by HSA
10 | O=C(O)C(F)(F)C(F)(F)C(F)(F)C(F)(F)C(F)(F)F [PFHxA, Perfluorohexanoic acid] |  |  |  | 1400 ± 110 | 1640 ± 190 | Kd (rat serum albumin (RSA)): 960 ± 70 µM; Kd [1]: 950 ± 110 µM; Kd [2]: 1420 ± 30 µM
11 | O=C(O)C(F)(F)C(F)(F)C(F)(F)C(F)(F)C(F)(F)C(F)(F)F [PFHpA, perfluoroheptanoic acid] | 15.3 ± 0.29 | 680 ± 60 | 440 ± 80 |  |  | 
12 | O=S(=O)(O)C(F)(F)C(F)(F)OC(F)(C(F)(F)F)C(F)(F)OC(F)C(F)(F)F (stereo not drawn) [Nafion bp2, 7H-perfluoro-4-methyl-3,6-dioxaoctanesulfonic acid] |  |  |  | 1900 ± 240 | 1510 ± 150 | 
13 | O=C(O)C(F)(F)C(F)(F)C(F)(F)C(F)(F)C(F)(F)C(F)(F)C(F)(F)C(F)(F)F [PFNA, perfluorononanoic acid] |  |  |  | 600 ± 92 | 580 ± 87 | 
14 | O=S(=O)(O)CCC(F)(F)C(F)(F)C(F)(F)C(F)(F)C(F)(F)C(F)(F)F [6:2 FTSA, 2H,2H,3H,3H-Perfluorooctane-1-sulfonate] | 3.60 ± 0.33 | 470 ± 120 | 370 ± 140 |  |  | Kd (HSA; read-out: Human Kd ± SEM, human albumin): 370 ± 140 µM; Kd ([1]; read-out: Bovine Kd ± SEM, bovine albumin): 930 ± 50 µM
15 | OCCC(F)(F)C(F)(F)C(F)(F)C(F)(F)F [4:2 FTOH, 1H,1H,2H,2H-Perfluorohexane-1-ol] | 0 ± 0 |  |  |  |  | bound by HSA (HSA): not bound by HSA
16 | O=C(O)CCC(F)(F)C(F)(F)C(F)(F)C(F)(F)C(F)(F)C(F)(F)F [6:3 FTCA, 2,H,2H,3H,3H-Perfluorononanoic acid] |  |  |  | 840 ± 86 | 810 ± 92 | 
17 | O=C(O)CCC(F)(F)C(F)(F)C(F)(F)C(F)(F)C(F)(F)C(F)(F)C(F)(F)C(F)(F)F [8:3 FTCA, 2,H,2H,3H,3H-Perfluoroundecanoate] |  |  |  | 1160 ± 170 | 970 ± 68 | aqueous solubility [3]: limited aqueous solubility
18 | O=C(O)C(F)(F)C(F)(F)C(F)(F)C(F)(F)C(F)(F)C(F)(F)C(F)(F)F [PFOA, perfluorooctanoic acid] |  | 840 ± 43 |  |  |  | Δ Tm (HSA; stock solvent DMSO (50% in HBS)): 13.2 °C; EC50 (HSA; [7]): 850 ± 10 µM; Kd (HSA; [7]): 840 ± 80 µM; Kd (HSA; stock solvent HEPES-buffered saline (HBS), mean ± SEM): 830 ± 110 µM; Δ Tm (HSA; stock solvent Methanol (30% in HBS)): 13.5 °C; EC50 (HSA; stock solvent Methanol (30% in HBS), mean ± SEM): 780 ± 70 µM; Kd [1]: 750 ± 50 µM; Kd [2]: 320 ± 40 µM
19 | O=C(O)C(F)(F)C(F)(F)C(F)(F)C(F)(F)C(F)(F)C(F)(F)C(F)(F)C(F)(F)C(F)(F)C(F)(F)F [PFunDA, Perfluoroundecanoic acid] |  |  |  | 1490 ± 24 | 1360 ± 530 | 
20 | O=S(=O)(O)C(F)(F)C(F)(F)C(F)(F)C(F)(F)C(F)(F)C(F)(F)C(F)(F)C(F)(F)F [PFOS, perfluorooctanesulfonic acid] |  |  |  | 1130 ± 130 |  | 
21 | O=C(O)C(F)(F)C(F)(F)C(F)(F)C(F)(F)F [PFPeA, perfluoropentanoic acid] |  |  |  | 2140 ± 170 | 2100 ± 230 | 
22 | O=C(O)C(F)(OC(F)(F)C(F)(F)C(F)(F)F)C(F)(F)F (stereo not drawn) [HFPO-DA, hexafluoropropylene oxide dimer acid] | 13.7 ± 0.12 | 1830 ± 250 | 1600 ± 160 |  |  | stability in DMSO [4]: rapidly converted to E1; EC50 (HSA; HFPO-DA in DMSO (1:1 HBS and DMSO, room temperature 4 hours before analysis)): 2340 ± 230 µM
23 | O=C(O)CCC(F)(F)C(F)(F)C(F)(F)C(F)(F)C(F)(F)F [5:3 FTCA, 2H,2H,3H,3H-Perfluorooctanoic acid] |  |  |  | 1480 ± 100 | 620 ± 42 | 
24 | O=S(=O)(O)C(F)(F)C(F)(F)C(F)(F)C(F)(F)F [PFBS, Perfluorobutanesulfonic acid] |  |  |  | 1720 ± 230 | 1650 ± 280 | Kd (rat serum albumin (RSA)): 930 ± 80 µM; Kd [1]: 1130 ± 80 µM; Kd [2]: 1550 ± 40 µM
25 | O=C(O)CCC(F)(F)C(F)(F)C(F)(F)F [3:3 FTCA, 2H,2H,3H,3H-Perfluorohexanoic acid] |  |  |  | 2060 ± 210 | 1710 ± 190 | 
